System: snake venom phosphodi-esterase (SVPD)
Settings: SVPD 0.0005 U/mL, 50 mM Tris-HCl pH 7.5, 8 mM MgCl2, 37° C., oligomer 5 μm; full-length oligomer by IP-HPLC/MS
Protocol: [drawing 26] • The nuclease stability was determined after treatment with snake venom phosphodi-esterase (SVPD). Each of the test oligomers was incubated with SVPD (0.0005 U/mL) in 50 mM Tris-HCl, pH 7.5, 8 mM MgCl2 at 37° C. to a final concentration of 5 μm in a total volume of 400 μL. At each time point, a 50 μL aliquot and quenching buffer (8 M Urea, 50 mM EDTA) was placed in a 500 μL, microfuge tube. Kinetic time points were taken at 0, 0.5, 1, 1.5, 2, and 4 minutes for 7157; 0, 0.5, 1, 1.5, 2, 2.5, 3 and 5 minutes for 440140. The samples were then cooled on ice and spun in a Microfuge to bring the entire volume to the bottom of the tube. Samples were kept frozen until ready for LC/MS analysis.
For each sample the oligomer and metabolites were separated and analyzed using IP-HPLC/MS techniques. Samples were diluted to a concentration of 1 μM with quenching buffer in a microsampling vial and 50 μL of the sample was injected into the IP-HPLC column (YMC ODS-AQ™ 1.0 mm×150 mm, 3 μm, 120 A°). The loading buffer used was 25 mM TBAA (tributyl ammonium acetate) in 25% acetonitrile. […] The percentages of the full-length oligomers were calculated by integration using Caesar v. 6 software (Senetec Software, New Jersey) and the oligonucleotide half-lives were calculated using GraphPad Prism 4.

Sequence: TTTTTTTTTTTT [ISIS 7157]
- Half Life: 24 s

From US8546556B2, “Carbocyclic alpha-L-bicyclic nucleic acid analogs” (Isis Pharmaceuticals, Inc, priority 2007, dated 2013)
